In paper PMC10221159, “Investigation of N-Acetyltransferase 2-Mediated Drug Interactions of Amifampridine: In Vitro and In Vivo Evidence of Drug Interactions with Acetaminophen” (Pharmaceutics, 2023):
Read-outs that look alike come from different tables or passages of the source.

Key:
[1] = In vivo pharmacokinetic interaction study in rats (plasma); set-up: species or system rat; conditions: oral amifampridine 2 mg/kg; for AUC(0-inf) / AUC(0-t) / CL/F / Cmax / MRT / Tmax / Vd/F / half-life / CL renal: male, Sprague-Dawley, rat, po, 2 mg/kg; for AUC(0-inf) / AUC(0-t) / CL/F / Cmax / MRT / Tmax / Vd/F / half-life: plasma; for CL renal: urine and plasma, renal clearance
Description: Male Sprague Dawley (SD) rats (7–8 weeks old, 260–330 g) were purchased from Orient Bio, Inc. (Seongnam, Korea). The rats were housed under a light/dark cycle for 12 h and were left for at least a week before the experiment to adapt to the laboratory environment. Water and food were provided ad libitum. The rats were fasted overnight with free access to water prior to pharmacokinetic studies. The protocols for animal experiments were approved in accordance with the Guidelines for Animal Care and Use of Gachon University (approval no.: GIACUC-R2021006; 13 May 2021).
The rats were anesthetized with a mixture of Rompun and Zoletil by intramuscular injection and received an intraperitoneal injection of vehicle (40:60 PEG400:normal saline; n = 8) or 100 mg/kg acetaminophen (n = 8). After 10 min, 2 mg/kg amifampridine (dissolved in saline) was administered orally. Blood samples were collected at 0, 5, 15, 30, 60, 90, 120, 240, and 360 min and centrifuged at 14,000 rpm for 15 min at 4 °C. For analysis of amifampridine and 3-N-acetylamifampridine, 50 μL of plasma samples was mixed with 100 μL IS solution (5 ng/mL ondansetron in acetonitrile) and the mixture was vortexed followed by centrifugation at 14,000 rpm for 15 min at 4 °C. For the analysis of acetaminophen, 200 μL of IS (tolbutamide 200 ng/mL in methanol) was added to the plasma samples which were diluted 10-fold using the blank plasma and then vortexed for one minute. Further, the samples were centrifuged at 14,000 rpm for 15 min at 4 °C. The supernatants were transferred to LC vials for quantification.
Non-compartment analysis (NCA) was performed to calculate the pharmacokinetic parameters for the in vivo study using WinNonlin (Version 8.3. (Pharsight Corporation, Mountain View, CA, USA)). The area under the plasma concentration–time curve from time 0 to infinity (AUCinf) was calculated by the linear trapezoidal method and standard extrapolation using λ, where λ represents the slope of the terminal phase in a semi-log graph for plasma concentration–time profiles. Renal clearance (CLr) was determined by dividing the accumulated amount of drug excreted in the urine by AUCinf.

[2] = Urinary excretion of amifampridine and 3-N-acetylamifampridine in rats; assay type: in vivo, rat; conditions: Sprague Dawley, rat, urine, oral, 2 mg/kg, 24 h, oral amifampridine 2 mg/kg, read-out: total urinary recovery
Description: Urine samples were collected at intervals of 0–4, 4–8, and 8–24 h after the administration of amifampridine to control and acetaminophen-treated rats (n = 6), as described above, and were diluted 500-fold with potassium phosphate buffer. An amount of 200 μL of IS was then added to the samples and vortexed for a minute. After centrifugation at 14,000 rpm for 15 min at 4 °C, the supernatant was transferred into vials for quantification of amifampridine and 3-N-acetylamifampridine.

[3] = Tissue distribution of amifampridine and 3-N-acetylamifampridine in rats; assay type: in vivo, rat; conditions: for Kp at 1 h: rat, 60 min after oral amifampridine 2 mg/kg
Description: To investigate the effects of acetaminophen on the tissue distribution of amifampridine and 3-N-acetylamifampridine, rats were sacrificed at 60 min after administration of amifampridine in control and acetaminophen-treated rats (n = 6) as mentioned above, and the tissues, including liver, kidney, heart, lungs, spleen, brain, and muscle tissues, were obtained. Tissue samples were homogenized using a Wheaton^TM Dounce tissue grinder (Wheaton Millipore, Billerica, MA, USA) after adding a three-fold volume of PBS. An amount of 100 μL of tissue homogenates was transferred to the tube and 200 μL of IS solution was then added and vortexed followed by centrifugation at 14,000 rpm for 15 min at 4 °C. The supernatants were transferred to LC vials for quantification. For muscle samples, the supernatant was concentrated using a desiccator and reconstituted with the mobile phase solvent.

[4] = humans, cited from earlier work
[5] = set-up: method as in PMID 25692017; conditions: NAT2 slow vs fast acetylators; cited from earlier work
[6] = acetaminophen-treated (100 mg/kg) vs control rats
[7] = acetaminophen-treated group (100 mg/kg ip)
[8] = 60 min, acetaminophen-treated vs control rats

Which results are given for Nc1ccncc1N [amifampridine]?
increase in AUCinf [1, 6]: 185.64%; increase in Cmax [1, 6]: 208.34%; AUC(0-inf) [1, 7]: 434 ng·h/mL; AUC(0-t) [1, 7]: 414 ng·h/mL; CL/F [1, 7]: 81.7 ± 21.2 mL/min/kg; Cmax [1, 7]: 200 ± 100 ng/mL; MRT [1, 7]: 2.08 h; Tmax [1, 7]: 60 min; Vd/F [1, 7]: 9.83 ± 4.69 L/kg; half-life [1, 7]: 81.3 ± 25 min; AUC(0-inf) ([1]; control group): 152 ng·h/mL; AUC(0-t) ([1]; control group): 141 ng·h/mL; CL/F ([1]; control group): 225 ± 38.3 mL/min/kg; Cmax ([1]; control group): 70 ± 20 ng/mL; MRT ([1]; control group): 2.29 h; Tmax ([1]; control group): 46.9 min; Vd/F ([1]; control group): 26.9 L/kg; half-life ([1]; control group): 83.9 ± 21.1 min; CL renal [1, 7]: 3.87 ± 0.91 mL/min; CL renal ([1]; control group): 4.89 ± 1.71 mL/min; dose excreted ([2]; acetaminophen-treated rats): 18.9%; dose excreted ([2]; control rats): 6.7%; increase of concentration in liver [3, 8]: 270.26%; increase of concentration in muscle [3, 8]: 413.11%; increase of concentration in spleen [3, 8]: 265.17%; Kp at 1 h ([3]; Sprague Dawley, brain, acetaminophen 100 mg/kg, read-out: Tissue partition coefficient (Kp), Brain): 0.1; Kp at 1 h ([3]; Sprague Dawley, brain, control, read-out: Tissue partition coefficient (Kp), Brain): 0.1 ± 0.3; Kp at 1 h ([3]; Sprague Dawley, heart, acetaminophen 100 mg/kg, read-out: Tissue partition coefficient (Kp), Heart): 0.7 ± 0.5; Kp at 1 h ([3]; Sprague Dawley, heart, control, read-out: Tissue partition coefficient (Kp), Heart): 0.6 ± 0.5; Kp at 1 h ([3]; Sprague Dawley, lungs, acetaminophen 100 mg/kg, read-out: Tissue partition coefficient (Kp), Lungs): 2.2 ± 2.8; Kp at 1 h ([3]; Sprague Dawley, lungs, control, read-out: Tissue partition coefficient (Kp), Lungs): 1.7 ± 1.1; Kp at 1 h ([3]; Sprague Dawley, spleen, acetaminophen 100 mg/kg, read-out: Tissue partition coefficient (Kp), Spleen): 1.6 ± 1; Kp at 1 h ([3]; Sprague Dawley, spleen, control, read-out: Tissue partition coefficient (Kp), Spleen): 1 ± 0.5; decrease of Kp in the kidneys ([3]; acetaminophen-treated vs control rats): 51%; Kp at 1 h ([3]; male, Sprague-Dawley, kidney, acetaminophen 100 mg/kg, read-out: Tissue partition coefficient (Kp), Kidney): 3.6 ± 0.4; Kp at 1 h ([3]; male, Sprague-Dawley, kidney, control, read-out: Tissue partition coefficient (Kp), Kidney): 7.4 ± 2.7; Kp at 1 h ([3]; male, Sprague-Dawley, liver, acetaminophen 100 mg/kg, read-out: Tissue partition coefficient (Kp), Liver): 3 ± 1.5; Kp at 1 h ([3]; male, Sprague-Dawley, liver, control, read-out: Tissue partition coefficient (Kp), Liver): 3.8 ± 2.6; Kp at 1 h ([3]; male, Sprague-Dawley, muscle, acetaminophen 100 mg/kg, read-out: Tissue partition coefficient (Kp), Muscle): 0.4 ± 0.2; Kp at 1 h ([3]; male, Sprague-Dawley, muscle, control, read-out: Tissue partition coefficient (Kp), Muscle): 0.5 ± 0.4; dose excreted via the urine within 24 h ([4]; after administration of amifampridine): 19%; dose excreted via the urine within 24 h as amifampridine plus 3-N-acetylamifampridine [4]: More than 90%; elimination half-life [4]: approximately 2.5 h; AUC higher in slow acetylators than in fast acetylators [5]: 5–10 fold; Cmax higher in slow acetylators than in fast acetylators [5]: approximately 3.5 fold; higher frequency of drug-related treatment-emergent adverse events in slow than fast acetylators [5]: more than 10 fold
